≈ marks a conversion by molar mass, not a printed value.
Experiments:
Escherichia coli [1] = assay: Bactericidal activity against Escherichia coli MTCC 739 measured after 24 hrs; assay type: functional; details: MTCC 739, 24 h
Escherichia coli [2] = assay: Antibacterial activity against Escherichia coli MTCC 739 after 24 hrs by agar well diffusion method; assay type: functional; details: MTCC 739, 24 h
Staphylococcus aureus [3] = assay: Bactericidal activity against Staphylococcus aureus MLS-16 MTCC 2940 measured after 24 hrs; assay type: functional; details: MLS-16 MTCC 2940, 24 h
Staphylococcus aureus [4] = assay: Antibacterial activity against Staphylococcus aureus MLS-16 MTCC 2940 after 24 hrs by agar well diffusion method; assay type: functional; details: MLS-16 MTCC 2940, 24 h
Candida albicans [5] = assay: Fungicidal activity against Candida albicans MTCC 3017 measured after 24 hrs; assay type: functional; details: MTCC 3017, 24 h
Candida albicans [6] = assay: Antifungal activity against Candida albicans MTCC 3017; assay type: functional
Raoultella planticola [7] = assay: Antibacterial activity against Klebsiella planticola MTCC 530 after 24 hrs by agar well diffusion method; assay type: functional; details: MTCC 530, 24 h
Raoultella planticola [8] = assay: Bactericidal activity against Klebsiella planticola MTCC 530 measured after 24 hrs; assay type: functional; details: MTCC 530, 24 h
Bacillus subtilis [9] = assay: Bactericidal activity against Bacillus subtilis MTCC 121 measured after 24 hrs; assay type: functional; details: MTCC 121, 24 h
Staphylococcus aureus [10] = assay: Bactericidal activity against Staphylococcus aureus MTCC 96 measured after 24 hrs; assay type: functional; details: MTCC 96, 24 h
Micrococcus luteus [11] = assay: Bactericidal activity against Micrococcus luteus MTCC 2470 measured after 24 hrs; assay type: functional; details: MTCC 2470, 24 h
Micrococcus luteus [12] = assay: Antibacterial activity against Micrococcus luteus MTCC 2470 after 24 hrs by agar well diffusion method; assay type: functional; details: MTCC 2470, 24 h
Staphylococcus aureus [13] = assay: Antibacterial activity against Staphylococcus aureus MTCC 96 after 24 hrs by agar well diffusion method; assay type: functional; details: MTCC 96, 24 h
Bacillus subtilis [14] = assay: Antibacterial activity against Bacillus subtilis MTCC 121 after 24 hrs by agar well diffusion method; assay type: functional; details: MTCC 121, 24 h
Pseudomonas aeruginosa = assay: microbe, parasite or virus in culture; details: MTCC 2453, 24 h
Description: Bactericidal activity against Pseudomonas aeruginosa MTCC 2453 measured after 24 hrs

Row | MIC (Escherichia coli [2]) [µg/mL] | MIC (Staphylococcus aureus [4]) [µg/mL] | MIC (Candida albicans [6]) [µg/mL] | MIC (Micrococcus luteus [12]) [µg/mL] | MIC (Staphylococcus aureus [13]) [µg/mL] | MIC (Bacillus subtilis [14]) [µg/mL] | Compound | MBC (Escherichia coli [1]) [µg/mL] | MBC (Staphylococcus aureus [3]) [µg/mL] | MFC (Candida albicans [5]) [µg/mL] | MIC (Raoultella planticola [7]) [µg/mL] | MBC (Raoultella planticola [8]) [µg/mL] | MBC (Bacillus subtilis [9]) [µg/mL] | MBC (Staphylococcus aureus [10]) [µg/mL] | MBC (Micrococcus luteus [11]) [µg/mL] | MBC (Pseudomonas aeruginosa) [µg/mL]
1 | 3.9 (≈ 12.2 µM) | 1.9 (≈ 5.93 µM) |  |  |  |  | O=C1COc2ccccc2N1Cc1cn(Cc2ccccc2)nn1 | 7.8 (≈ 24.3 µM) | 3.9 (≈ 12.2 µM) |  |  |  |  |  |  | 
2 |  |  | 7.8 (≈ 22 µM) |  |  |  | O=C1COc2ccc(Cl)cc2N1Cc1cn(Cc2ccccc2)nn1 |  |  | 15.6 (≈ 44 µM) |  |  |  |  |  | 
3 | 7.8 (≈ 24.1 µM) |  | 3.9 (≈ 12 µM) |  |  |  | O=C1COc2ccccc2N1Cc1cn(-c2ccc(F)cc2)nn1 | 15.6 (≈ 48.1 µM) |  | 7.8 (≈ 24.1 µM) |  |  |  |  |  | 
4 |  | 1.9 (≈ 5.12 µM) | 7.8 (≈ 21 µM) |  |  |  | COc1ccc(-n2cc(CN3C(=O)COc4ccc(Cl)cc43)nn2)cc1 |  | 3.9 (≈ 10.5 µM) | 15.6 (≈ 42.1 µM) |  |  |  |  |  | 
5 | 3.9 (≈ 12.2 µM) | 3.9 (≈ 12.2 µM) | 7.8 (≈ 24.3 µM) |  |  |  | Cc1ccc(-n2cc(CN3C(=O)COc4ccccc43)nn2)cc1 | 7.8 (≈ 24.3 µM) | 7.8 (≈ 24.3 µM) | 15.6 (≈ 48.7 µM) | 3.9 (≈ 12.2 µM) | 7.8 (≈ 24.3 µM) |  |  |  | 
6 | 3.9 (≈ 12.2 µM) | 3.9 (≈ 12.2 µM) | 7.8 (≈ 24.3 µM) |  |  |  | Cc1ccccc1-n1cc(CN2C(=O)COc3ccccc32)nn1 | 7.8 (≈ 24.3 µM) | 7.8 (≈ 24.3 µM) | 15.6 (≈ 48.7 µM) | 3.9 (≈ 12.2 µM) | 7.8 (≈ 24.3 µM) |  |  |  | 
7 | 3.9 (≈ 10.9 µM) | 1.9 (≈ 5.3 µM) | 7.8 (≈ 21.7 µM) | 1.9 (≈ 5.3 µM) | 3.9 (≈ 10.9 µM) | 1.9 (≈ 5.3 µM) | O=C1COc2ccc(Cl)cc2N1Cc1cn(-c2ccc(F)cc2)nn1 | 7.8 (≈ 21.7 µM) | 3.9 (≈ 10.9 µM) | 15.6 (≈ 43.5 µM) | 3.9 (≈ 10.9 µM) | 7.8 (≈ 21.7 µM) | 3.9 (≈ 10.9 µM) | 7.8 (≈ 21.7 µM) | 3.9 (≈ 10.9 µM) | 
8 |  |  | 15.6 (≈ 44.4 µM) |  |  |  | O=C1COc2ccccc2N1Cc1cn(-c2ccc([N+](=O)[O-])cc2)nn1 |  |  | 31.2 (≈ 88.8 µM) |  |  |  |  |  | 
9 |  |  | 7.8 (≈ 22.9 µM) |  |  |  | O=C1COc2ccccc2N1Cc1cn(-c2ccc(Cl)cc2)nn1 |  |  | 15.6 (≈ 45.8 µM) |  |  |  |  |  | 
10 |  |  | 7.8 (≈ 20.2 µM) |  |  |  | O=C1COc2ccc(Cl)cc2N1Cc1cn(-c2ccc([N+](=O)[O-])cc2)nn1 |  |  | 15.6 (≈ 40.4 µM) |  |  |  |  |  | 
11 | 7.8 (≈ 23.2 µM) |  | 3.9 (≈ 11.6 µM) |  |  |  | COc1ccc(-n2cc(CN3C(=O)COc4ccccc43)nn2)cc1 | 15.6 (≈ 46.4 µM) |  | 7.8 (≈ 23.2 µM) |  |  |  |  |  | 
12 |  |  |  |  | 3.9 (≈ 12.7 µM) |  | O=C1COc2ccccc2N1Cc1cn(-c2ccccc2)nn1 |  |  |  | 3.9 (≈ 12.7 µM) | 7.8 (≈ 25.5 µM) |  | 7.8 (≈ 25.5 µM) |  | 
13 |  | 1.9 (≈ 5.36 µM) | 7.8 (≈ 22 µM) | 1.9 (≈ 5.36 µM) | 1.9 (≈ 5.36 µM) | 1.9 (≈ 5.36 µM) | Cc1ccc(-n2cc(CN3C(=O)COc4ccc(Cl)cc43)nn2)cc1 |  | 3.9 (≈ 11 µM) | 15.6 (≈ 44 µM) | 3.9 (≈ 11 µM) | 7.8 (≈ 22 µM) | 3.9 (≈ 11 µM) | 3.9 (≈ 11 µM) | 3.9 (≈ 11 µM) | 
14 | 3.9 (≈ 11 µM) | 1.9 (≈ 5.36 µM) | 7.8 (≈ 22 µM) | 1.9 (≈ 5.36 µM) | 1.9 (≈ 5.36 µM) | 1.9 (≈ 5.36 µM) | Cc1ccccc1-n1cc(CN2C(=O)COc3ccc(Cl)cc32)nn1 | 7.8 (≈ 22 µM) | 3.9 (≈ 11 µM) | 15.6 (≈ 44 µM) | 3.9 (≈ 11 µM) | 7.8 (≈ 22 µM) | 3.9 (≈ 11 µM) | 3.9 (≈ 11 µM) | 3.9 (≈ 11 µM) | 
15 |  |  | 7.8 (≈ 18.7 µM) |  |  |  | Clc1ccc(COC(Cn2ccnc2)c2ccc(Cl)cc2Cl)c(Cl)c1 (centres undefined) [MICONAZOLE] |  |  | 7.8 (≈ 18.7 µM) |  |  |  |  |  | 

Row | Compound | MIC (Escherichia coli [2]) [µg/mL] | MIC (Staphylococcus aureus [4]) [µg/mL] | MIC (Candida albicans [6]) [µg/mL] | MIC (Micrococcus luteus [12]) [µg/mL] | MIC (Staphylococcus aureus [13]) [µg/mL] | MIC (Bacillus subtilis [14]) [µg/mL] | MBC (Escherichia coli [1]) [µg/mL] | MBC (Staphylococcus aureus [3]) [µg/mL] | MFC (Candida albicans [5]) [µg/mL] | MIC (Raoultella planticola [7]) [µg/mL] | MBC (Raoultella planticola [8]) [µg/mL] | MBC (Bacillus subtilis [9]) [µg/mL] | MBC (Staphylococcus aureus [10]) [µg/mL] | MBC (Micrococcus luteus [11]) [µg/mL] | MBC (Pseudomonas aeruginosa) [µg/mL]
16 | O=C(O)c1cn(C2CC2)c2cc(N3CCNCC3)c(F)cc2c1=O [CIPROFLOXACIN] | 0.9 (≈ 2.72 µM) | 0.9 (≈ 2.72 µM) |  | 0.9 (≈ 2.72 µM) | 0.9 (≈ 2.72 µM) | 0.9 (≈ 2.72 µM) | 0.9 (≈ 2.72 µM) | 0.9 (≈ 2.72 µM) |  | 0.9 (≈ 2.72 µM) | 0.9 (≈ 2.72 µM) | 0.9 (≈ 2.72 µM) | 0.9 (≈ 2.72 µM) | 0.9 (≈ 2.72 µM) | 0.9 (≈ 2.72 µM)
